Source: patent US20230047393A1 (EWHA DrugDesignHouse Co.,Ltd., priority 2021, published 2023)
Converted amounts (≈) assume the structure as drawn. Where two headings read alike, the source gives them in different places.

Assays:
[1] = Solubility of EW-7197 at various pH values; format: physicochemical; details: thermodynamic from solid
Description: In order to use EW-7197 for treating or preventing TFG-β signaling related ocular diseases, postsurgical peritoneal adhesions, postsurgical anastomotic strictures, hypertrophic scar, or keloid in human, formulation development of an aqueous solution containing appropriate amounts of EW-7197 is needed.

[2] = system: liver of bile duct ligated rats; details: cited from earlier work
[3] = system: MDA-MB-231-xenografted mouse model; details: cited from earlier work
mouse B16 melanoma model = details: cited from earlier work
[4] = system: 4T1 orthotopic-grafted mice; details: cited from earlier work
[5] = Solubility of EW-7197 with various solubilizing agents (4° C. and 25° C.); format: physicochemical; details: for EW-7197 dissolved: 1% of each surfactant, boric acid/sodium borate pH7.5
Description: The buffer solution used in this study was 0.9% boric acid/0.1% sodium borate (pH7.5). […] After confirming that the formulations were suspended at each temperature, each formulation was filtered.

[6] = system: kidney of mice with unilateral ureteral obstruction; details: cited from earlier work
[7] = Photostability of EW-7197 in buffer solutions (ultraviolet and visible light); format: physicochemical; details: solution left in a room for a whole day under fluorescent lighting (about 1000 lx per hour)
Method: The formulations used in the photostability test are the same formulations (excluding A13, A16, A19, and A22) used for evaluation of thermal stability shown in Table 4. After preparation, each formulation was filtered. About 3 mL of the filtrate was filled in a glass ampule, and illuminated with ultraviolet light of 50 W·h/m^2 and visible light of 300,000 lx·hr by a photostability test chamber. […] Generally, illumination under white fluorescent lighting is about 1000 lx per hour. […] Therefore, EW-7197 needs to be stored in light shielded conditions.

[8] = Effect of metal ion on thermal stability of EW-7197 (40° C.); format: physicochemical; details: 100 ppm aluminum ions or iron ions, with or without EDTA, PE bottles
Method: After the preparation of each formulation, the formulation was filtered. The filtrate was filled into a PE bottle, and stored in a thermostatic chamber (40° C.).
In this study, the final concentration of aluminum ions or iron ions was 100 ppm, and the PE ophthalmic bottles were used as containers.

[9] = system: peritoneal adhesions rat model; details: dose-dependent; cited from earlier work
rat esophagus = details: after SEMS placement in the rat esophagus; cited from earlier work
MMTV/c-Neu mice = details: cited from earlier work
[10] = system: mouse model of ulcerative colitis; details: cited from earlier work
Col8a2 knock-in mice = details: cited from earlier work
CML-affected mice = details: combined with ponatinib, compared to ponatinib alone; cited from earlier work
[11] = system: lung of bleomycin-treated mice; details: cited from earlier work
[12] = system: adhesion bands mouse model; details: cited from earlier work
[13] = system: liver of CCl4-treated mice; details: cited from earlier work
[14] = Solubility of EW-7197 in PEG/poloxamer formulations (5° C. and 25° C.); format: physicochemical; details: formulations containing 25% PEG4000 and 10% poloxamer 407
Method: After confirming that the formulation was suspended at each temperature, the suspension was filtered. The EW-7197 content of the filtrate was measured by HPLC.

Cc1cccc(-c2[nH]c(CNc3ccccc3F)nc2-c2ccc3ncnn3c2)n1 [EW-7197, 2-fluoro-N-((5-(6-methylpyridin-2-yl)-4-([1,2,4]triazolo[1,5-a]pyridin-6-yl)-1H-imidazol-2-yl)methyl)aniline]
solubility ([1]; 0.1N NaOH, pH 12.86, aqueous buffer, pH 12.86, 0.1N NaOH, pH after equilibration 12.53, read-out: Solubility Average (n = 2)): 0.437 mg/mL (≈ 1090 µM)
solubility ([1]; 0.1N NaOH, pH 12.86, aqueous buffer, pH 12.86, 0.1N NaOH, pH after equilibration 12.53, read-out: Solubility Trial 1): 0.396 mg/mL (≈ 991 µM)
solubility ([1]; 0.1N NaOH, pH 12.86, aqueous buffer, pH 12.86, 0.1N NaOH, pH after equilibration 12.53, read-out: Solubility Trial 2): 0.478 mg/mL (≈ 1200 µM)
solubility ([1]; citrate buffer, pH 3, aqueous buffer, pH 3.0, Citrate buffer, pH after equilibration 3.30, read-out: Solubility Average (n = 2)): 1.01 mg/mL (≈ 2540 µM)
solubility ([1]; citrate buffer, pH 3, aqueous buffer, pH 3.0, Citrate buffer, pH after equilibration 3.30, read-out: Solubility Trial 1): 1 mg/mL (≈ 2500 µM)
solubility ([1]; citrate buffer, pH 3, aqueous buffer, pH 3.0, Citrate buffer, pH after equilibration 3.30, read-out: Solubility Trial 2): 1.03 mg/mL (≈ 2580 µM)
solubility ([1]; citrate buffer, pH 4, aqueous buffer, pH 4.0, Citrate buffer, pH after equilibration 4.16, read-out: Solubility Average (n = 2)): 0.105 mg/mL (≈ 263 µM)
solubility ([1]; citrate buffer, pH 4, aqueous buffer, pH 4.0, Citrate buffer, pH after equilibration 4.16, read-out: Solubility Trial 1): 0.11 mg/mL (≈ 275 µM)
solubility ([1]; citrate buffer, pH 4, aqueous buffer, pH 4.0, Citrate buffer, pH after equilibration 4.16, read-out: Solubility Trial 2): 0.1 mg/mL (≈ 250 µM)
solubility ([1]; citrate buffer, pH 5, aqueous buffer, pH 5.0, Citrate buffer, pH after equilibration 4.90, read-out: Solubility Average (n = 2)): 0.02 mg/mL (≈ 50.1 µM)
solubility ([1]; citrate buffer, pH 5, aqueous buffer, pH 5.0, Citrate buffer, pH after equilibration 4.90, read-out: Solubility Trial 1): 0.019 mg/mL (≈ 47.6 µM)
solubility ([1]; citrate buffer, pH 5, aqueous buffer, pH 5.0, Citrate buffer, pH after equilibration 4.90, read-out: Solubility Trial 2): 0.021 mg/mL (≈ 52.6 µM)
solubility ([1]; hydrochloric acid buffer, pH 1.2, simulated gastric fluid, pH 1.2, Hydrochloric acid buffer, pH after equilibration 2.81, read-out: Solubility Average (n = 2)): 25.1 mg/mL (≈ 62700 µM)
solubility ([1]; hydrochloric acid buffer, pH 1.2, simulated gastric fluid, pH 1.2, Hydrochloric acid buffer, pH after equilibration 2.81, read-out: Solubility Trial 1): 25.1 mg/mL (≈ 62700 µM)
solubility ([1]; hydrochloric acid buffer, pH 1.2, simulated gastric fluid, pH 1.2, Hydrochloric acid buffer, pH after equilibration 2.81, read-out: Solubility Trial 2): 25 mg/mL (≈ 62700 µM)
solubility ([1]; hydrochloric acid buffer, pH 2, simulated gastric fluid, pH 2.0, Hydrochloric acid buffer, pH after equilibration 2.97, read-out: Solubility Average (n = 2)): 2.91 mg/mL (≈ 7270 µM)
solubility ([1]; hydrochloric acid buffer, pH 2, simulated gastric fluid, pH 2.0, Hydrochloric acid buffer, pH after equilibration 2.97, read-out: Solubility Trial 1): 2.93 mg/mL (≈ 7340 µM)
solubility ([1]; hydrochloric acid buffer, pH 2, simulated gastric fluid, pH 2.0, Hydrochloric acid buffer, pH after equilibration 2.97, read-out: Solubility Trial 2): 2.88 mg/mL (≈ 7210 µM)
solubility ([1]; phosphate buffer, pH 6, aqueous buffer, pH 6.0, Phosphate buffer, pH after equilibration 5.96, read-out: Solubility Average (n = 2)): 0.012 mg/mL (≈ 30 µM)
solubility ([1]; phosphate buffer, pH 6, aqueous buffer, pH 6.0, Phosphate buffer, pH after equilibration 5.96, read-out: Solubility Trial 1): 0.012 mg/mL (≈ 30 µM)
solubility ([1]; phosphate buffer, pH 6, aqueous buffer, pH 6.0, Phosphate buffer, pH after equilibration 5.96, read-out: Solubility Trial 2): 0.012 mg/mL (≈ 30 µM)
solubility ([1]; phosphate buffer, pH 6.8, aqueous buffer, pH 6.8, Phosphate buffer, pH after equilibration 6.79, read-out: Solubility Average (n = 2)): 0.012 mg/mL (≈ 30 µM)
solubility ([1]; phosphate buffer, pH 6.8, aqueous buffer, pH 6.8, Phosphate buffer, pH after equilibration 6.79, read-out: Solubility Trial 1): 0.011 mg/mL (≈ 27.5 µM)
solubility ([1]; phosphate buffer, pH 6.8, aqueous buffer, pH 6.8, Phosphate buffer, pH after equilibration 6.79, read-out: Solubility Trial 2): 0.013 mg/mL (≈ 32.5 µM)
solubility ([1]; phosphate buffer, pH 7.4, aqueous buffer, pH 7.4, Phosphate buffer, pH after equilibration 7.32, read-out: Solubility Average (n = 2)): 0.013 mg/mL (≈ 32.5 µM)
solubility ([1]; phosphate buffer, pH 7.4, aqueous buffer, pH 7.4, Phosphate buffer, pH after equilibration 7.32, read-out: Solubility Trial 1): 0.013 mg/mL (≈ 32.5 µM)
solubility ([1]; phosphate buffer, pH 7.4, aqueous buffer, pH 7.4, Phosphate buffer, pH after equilibration 7.32, read-out: Solubility Trial 2): 0.013 mg/mL (≈ 32.5 µM)
solubility ([1]; water / aqueous solution, aqueous buffer, in an acceptable pH range for ophthalmic solution, read-out: water solubility): 0.01 to 0.02 mg/mL (≈ 25 to 50.1 µM)
solubility ([1]; water, pH 7.17, water, Water, pH after equilibration 7.17, read-out: Solubility Average (n = 2)): 0.009 mg/mL (≈ 22.5 µM)
solubility ([1]; water, pH 7.17, water, Water, pH after equilibration 7.17, read-out: Solubility Trial 1): 0.009 mg/mL (≈ 22.5 µM)
solubility ([1]; water, pH 7.17, water, Water, pH after equilibration 7.17, read-out: Solubility Trial 2): 0.009 mg/mL (≈ 22.5 µM)
expression of collagen, aSMA, fibronectin, 4-hydroxy-2,3-nonenal, and integrins [2]: decreases
paclitaxel-induced epithelial-mesenchymal transition (EMT) and cancer stem-like cells properties [3]: suppresses
progression of melanoma (mouse B16 melanoma model; mouse B16 melanoma model, with enhanced CTL responses): suppress
efficacy compared with LY-2157299 (mouse B16 melanoma model; oral EW-7197 2.5 mg/kg once daily vs LY-2157299 75 mg/kg bid): more effective
CTL activity [4]: enhanced
Smad/TGF-β signaling, cell migration, invasion, and lung metastasis [4]: inhibits
EW-7197 dissolved ([5]; 4° C.): about 0.01%
EW-7197 dissolved ([5]; 25° C.): about 0.02%
upper limit of concentration of EW-7197 ([5]; formulation with 1% tyloxapol, 4% PEG4000, and 2% niacinamide): about 0.015%
expression of collagen, aSMA, fibronectin, 4-hydroxy-2,3-nonenal, and integrins [6]: decreases
EW-7197 decomposed by light [7]: 1-5%
effect of metal ions on thermal stability of EW-7197 [8]: neither aluminum ions nor iron ions affected the thermal stability
incidence, quality, and tenacity of peritoneal adhesions [9]: reduces
granulation tissue formation (rat esophagus): suppresses
Smad/TGF-β signaling, cell migration, invasion, and lung metastasis (MMTV/c-Neu mice): inhibits
clinical symptoms of colitis [10]: ameliorates
excessive collagen deposition and fibrosis in colitis tissues [10]: inhibits
overexpression of proinflammatory and profibrotic genes [10]: suppresses
fibronectin expression (Col8a2 knock-in mice; 0.004%, 0.02%, and 0.1%, dose-dependent): suppresses
decrease in corneal endothelial cells and/or corneal endothelial disorders represented by overexpression of ECM (Col8a2 knock-in mice; 0.02% eye drop administration): effectively suppresses
disease relapse and survival (CML-affected mice): significantly delays disease relapse and prolongs survival
expression of collagen, aSMA, fibronectin, 4-hydroxy-2,3-nonenal, and integrins [11]: decreases
frequency and stability of adhesion bands [12]: prevents
expression of collagen, aSMA, fibronectin, 4-hydroxy-2,3-nonenal, and integrins [13]: decreases
solubility of EW-7197 [14]: about 0.125%
